Earlier results as cited in patent US20020054921A1, “Use of phyllanthus components for the treatment or prophylaxis of infections triggered by flavivirdae” (priority 2000, published 2002).

Key:
[1] = biological target: T1, cAMP-dependent protein kinase of the rat liver (Rattus norvegicus, UniProt P27791)
T1 construct: the cAMP-dependent protein kinase of the rat liver; host or cells: rat liver

[2] = test system: Ca^2+ and phospholipid-dependent protein kinase C (PKC) of the rat brain
[3] = test system: Ca^2+-dependent protein kinase of the wheat embryo; conditions: wheat embryo Ca^2+-dependent protein kinase
[4] = test system: Staphylococcus aureus; conditions: 0.1 ml added; extract 50 mg/ml, streptomycin 10 mg/ml
[5] = test system: Bacillus subtilis; conditions: 0.1 ml added; extract 50 mg/ml, streptomycin 10 mg/ml

Molecule	inhibition of protein kinase [1]	inhibition of protein kinase [2]	inhibition of protein kinase [3]	inhibition zone [4] [mm]	inhibition zone [5] [mm]
O=C1OC2C3OC(=O)C4=CC(=O)C5(O)Oc6c(O)c(O)cc(c6C4C5(O)O)C(=O)OC2C(OC(=O)c2cc(O)c(O)c(O)c2)OC3COC(=O)c2cc(O)c(O)c3c2C2C1=CC(=O)C(O)(O3)C2(O)O (centres unmarked) [amariin]	most effective	most effective	most effective		
[H]/N=C(/N)N[C@H]1[C@H](O)[C@@H](O)[C@H](O[C@@H]2O[C@@H](C)[C@](O)(C=O)[C@H]2O[C@@H]2O[C@@H](CO)[C@H](O)[C@@H](O)[C@@H]2NC)[C@@H](N/C(N)=N\[H])[C@@H]1O [streptomycin]				35	35
geraiin	most effective	most effective	most effective		
